Reference: PubChem BioAssay (NCI)
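Values below derive from 48-hour exposures of cells grown in 96-well plates, with endpoints linearly interpolated between the two concentrations bracketing the appropriate inhibition level. Here, GI50 denotes the concentration required for 50% inhibition of growth. TGI: total growth inhibition.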

Experiments:
Assay in all cases: inhibition of tumour cell growth, NCI panel, 48 h
786-0 renal = tested on: 786-0 renal
A498 renal = tested on: A498 renal
A549 NSCLC = tested on: A549 NSCLC
ACHN renal = tested on: ACHN renal
BT-549 breast = tested on: BT-549 breast
CAKI-1 renal = tested on: CAKI-1 renal
CCRF-CEM leukemia = tested on: CCRF-CEM leukemia
DU-145 prostate = tested on: DU-145 prostate
EKVX NSCLC = tested on: EKVX NSCLC
HCC-2998 colon = tested on: HCC-2998 colon
HCT-116 colon = tested on: HCT-116 colon
HCT-15 colon = tested on: HCT-15 colon
HL-60(TB) leukemia = tested on: HL-60(TB) leukemia
HOP-62 NSCLC = tested on: HOP-62 NSCLC
HOP-92 NSCLC = tested on: HOP-92 NSCLC
HS 578T breast = tested on: HS 578T breast
HT29 colon = tested on: HT29 colon
IGROV1 ovarian = tested on: IGROV1 ovarian
K-562 leukemia = tested on: K-562 leukemia
KM12 colon = tested on: KM12 colon
LOX IMVI melanoma = tested on: LOX IMVI melanoma
M14 melanoma = tested on: M14 melanoma
MALME-3M melanoma = tested on: MALME-3M melanoma
MCF7 breast = tested on: MCF7 breast
MDA-MB-231 breast = tested on: MDA-MB-231 breast
MDA-MB-435 = tested on: MDA-MB-435
MOLT-4 leukemia = tested on: MOLT-4 leukemia

## CC(C)(C)c1cc(NC(=O)Nc2ccc(-c3cn4c5c(sc4n3)CCc3cn(CCCN4CCCCC4)cc3-5)cc2)no1
786-0 renal
  GI50: 1760 nM
  TGI: 3210 nM
A498 renal
  GI50: 1760 nM
  TGI: 3150 nM
A549 NSCLC
  GI50: 1830 nM
  TGI: 3470 nM
ACHN renal
  GI50: 1790 nM
  TGI: 3210 nM
BT-549 breast
  GI50: 1750 nM
  TGI: 3290 nM
CAKI-1 renal
  GI50: 1640 nM
  TGI: 3120 nM
CCRF-CEM leukemia
  GI50: 2010 nM
  TGI: 6440 nM
DU-145 prostate
  GI50: 1770 nM
  TGI: 3170 nM
EKVX NSCLC
  GI50: 1790 nM
  TGI: 3230 nM
HCC-2998 colon
  GI50: 1910 nM
  TGI: 3770 nM
HCT-116 colon
  GI50: 1670 nM
  TGI: 3220 nM
HCT-15 colon
  GI50: 1660 nM
  TGI: 3300 nM
HL-60(TB) leukemia
  GI50: 1880 nM
  TGI: 6270 nM
HOP-62 NSCLC
  GI50: 1900 nM
  TGI: 3750 nM
HOP-92 NSCLC
  GI50: 1420 nM
  TGI: 2820 nM
HS 578T breast
  GI50: 1820 nM
  TGI: 3850 nM
HT29 colon
  GI50: 1990 nM
  TGI: 3910 nM
IGROV1 ovarian
  GI50: 1960 nM
  TGI: 3820 nM
K-562 leukemia
  GI50: 2570 nM
  TGI: > 100000 nM
KM12 colon
  GI50: 1900 nM
  TGI: 3830 nM
LOX IMVI melanoma
  GI50: 1800 nM
  TGI: 3300 nM
M14 melanoma
  GI50: 1710 nM
  TGI: 3150 nM
MALME-3M melanoma
  GI50: 1710 nM
  TGI: 3380 nM
MCF7 breast
  GI50: 1750 nM
  TGI: 3810 nM
MDA-MB-231 breast
  GI50: 1950 nM
  TGI: 3730 nM
MDA-MB-435
  GI50: 1730 nM
  TGI: 3170 nM
MOLT-4 leukemia
  GI50: 1930 nM
  TGI: 6830 nM
